Experimental findings from patent US20250388572A1, “USE OF HPK1 INHIBITOR IN PREVENTION AND/OR TREATMENT OF HUMAN PATHOGEN INFECTION” (priority 2022, published 2025) are described below.

The subject of one data set is HSV virus. The data set is described as follows: Pharmacodynamic evaluation for viral keratitis (HSV) in mice. It is filed as in vivo, C57 mice. The following applies: for corneal perforation: right eye, 2 weeks, control: 2 eyes perforated from day 5; for clinical score at the highest peak of the disease (day 5): control group above 6. On the procedure:
Fifteen C57 mice (body weight: 22 g to 25 g), aged 8 weeks, were subjected to viral keratitis modeling in their right eyes. During the modeling process, a sterile 25G needle was used to make […]parallel scratches on the cornea of the right eye of all the animals. The scratch depth should be in the superficial zone and cannot penetrate the stroma layer. The scratches between each eyeball should be moderately uniform in depth and evenly distributed in density. Then, 4 μl of well-mixed HSV virus solution was dripped using a fiber syringe (titer: 2.0*10^6 PFU/ml) to complete the modeling. The day of modeling was set as DO. One day after modeling, the animals' right eyes were scored for viral keratitis, and 9 mice with uniform modeling were selected for the experiment. These 9 mice were randomly divided into 3 groups: control group, 1% A2 group and 0.2% A2 group, with 3 mice per group. According to the grouping, each animal's right eye surface was treated with the corresponding drugs, vehicle or 3024 eye drops with different concentrations, once every other day. On the day of administration, each eye was given 3 drops of 10 μl each time for 2 consecutive weeks. The degree of keratitis lesions was scored and analyzed on days 1, 3, 5, 7, 9, 11 and 14 after modeling.
Grading (i.e., scoring) was performed based on the three criteria of corneal ulcer area, depth and shape, and the total score was recorded by adding.
(1) Corneal ulcer area: Score 1=1% to 25%; Score 2=26% to 50%; Score 3=51% to 75%; and Score 4=76% to 100%.
(2) Lesion depth: Score 1=mild corneal opacity with clear iris texture; Score 2=off-white superficial corneal opacity with visible iris texture; Score 3=off-white deep corneal opacity with unclear iris texture; and Score 4=off-white full-layer dense corneal opacity with unclear anterior chamber.
(3) Corneal ulcer shape: Score 1=mild surface irregularity; Score 2=rough corneal surface with mild swelling; Score 3=severe edema with swelling descemet's membrane; and Score 4=corneal perforation or severe swelling descemet's membrane.
(4) If there is hypopyon and/or hyphema, the score is increased by 1.

The subject of the next data set is MHV-A59 virus. The data set is described as follows: Pharmacodynamic evaluation for MHV, high-dose virus group. It is filed as in vivo, C57BL/6 mice. The conditions noted are these: 10 mg/kg daily, 2×10^6 PFU; for survival rate: all control mice died. As for the experimental part: The effect of A2 on the prevention and treatment of MHV was investigated.
High-dose virus group: 21 male SPF grade C57BL/6 mice, aged 4 weeks, were divided into three groups: control group, precaution group and therapy group. These mice were anesthetized and then injected intrahepatically (i.h.) with 100 μL of DMEM containing 2×10^6 PFU MHV-A59 virus. The precaution group was given the first dose of A2 at 10 mg/kg 24 hours before the challenge, and the therapy group was given the first dose of A2 at 10 mg/kg 24 hours after the challenge, followed by daily continuous administration, both the precaution group and the therapy group being given a daily dose of 10 mg/kg. The weight change, clinical symptoms of disease and mortality of infected mice were monitored daily.

The conditions of data set [1]: human, microsomes, 1 h, 10 µM. As for the experimental part: (§1) The procedure for identifying microsomal metabolites is as follows:
(§2) The compounds (test compounds and their numbers are shown below, among which compounds A1 and B1 are prepared by referring to the relevant method disclosed in CN110396087A) were weighed and dissolved into dimethyl sulfoxide to prepare a 20 mM solution. The compound stock solution was diluted with 50% acetonitrile in water (v/v) to a concentration of 1.0 mM as a working solution. Liver microsomes (20 mg/mL) were diluted to 1.27 mg/mL with 50 mM dipotassium hydrogen phosphate buffer as a liver microsome working solution. Reduced coenzyme was weighed and dissolved in 3307 μL of phosphate buffer (50 mM) to 5.0 mM as a reduced coenzyme working solution. For T=60 minutes samples, 4 μL of test working solution (1.0 mM) was added, followed by 316 μL of liver microsome working solution (1.27 mg/mL), and finally, 80 μL of reduced coenzyme working solution was added to start the reaction. For T=0 minutes samples, 316 μL of liver microsome working solution (1.27 mg/mL) was added and then 80 μL of reduced coenzyme working solution was added to start the reaction, without test solution incubation. After incubation at 37° C. for 60 minutes, 1200 μL of stop solution was added to stop the enzyme reaction. For T=0 minute samples, 4 μL of test working solution (1.0 mM) was added. The sample plate was placed on a vortexer and vortexed at 600 rpm for 5 minutes. Then, the sample plate was centrifuged at 4000 rpm for 10 minutes. The supernatant was removed, mixed, and dried at room temperature with nitrogen. The residue dried with nitrogen was redissolved in 300 μL of 10% acetonitrile (0.1% FA) solvent and then centrifuged at 4000 rpm for 15 minutes. The supernatant was transferred to a detection plate for mass spectrometry. Mass spectrometry was performed using LC/Q-Exactive plus.
(§3) 7-Ethoxycoumarin (10 μM) was selected as a positive control compound and operated in parallel with the compounds.

The conditions of data set [2]: mouse, microsomes, 1 h, 10 µM. As for the experimental part:
as §1, §2, §3

Another data set deals with H1N1 (PR8 strain). Put plainly: Pharmacodynamic evaluation for H1N1 in mice. The following applies: 3 mg/kg, oral. The data set is classed as in vivo, C57BL/6 mice. As for the experimental part:
Six to eight-week-old female SPFC 57BL/6 mice (VitalRiver Laboratory Animal Technology Co., Ltd., SCXK (Beijing) 2016-0006, Beijing version) were infected with H1N1 (PR8 strain) and stimulated intranasally with 1×10^4 TCID50 virus nose drops. Mice were randomly divided into a therapy group and a control group. The therapy group was given 3 mg/kg of A2 orally, and the control group was given an equal amount of blank drug orally. The weight loss of mice in all groups was monitored daily.

SMILES strings stand for the structures. Read-outs that look alike come from different tables or passages of the source.

On to `[2H]C([2H])([2H])N1CCC(n2cc(-c3cnc(N)c(OCc4cccc(C#CC(C)(C)O)c4)c3)cn2)CC1` [Compound A2, 4-(3-(((2-amino-5-(1-(1-trideuteriomethylpiperidin-4-yl)-1H-pyrazol-4-yl)pyridin-3-yl)oxy)methyl)phenyl)-2-methylbut-3-yn-2-ol], for which the “keratitis lesion scores vs model control group” value in the data set with HSV virus (0.2% eye drops for 2 weeks, P<0.01) was “statistically different”; with HSV virus (1.0% eye drops for 2 weeks, P<0.05) it was “statistically different”. Also, the corneal perforation entry in the data set on HSV virus (0.2% eye drops) and with HSV virus (1% eye drops) was “no corneal perforation” in each case. Further, the “clinical score at the highest peak of the disease (day 5)” value in the data set with HSV virus (0.2% eye drops) and in the data set on HSV virus (1% eye drops) was “less than 6” each time. Also, in the data set with HSV virus (1% eye drops (suspension), control group above 1), the corneal neovascularization scoring entry was “below 0.5”. Moreover, the survival rate in the data set with MHV-A59 virus (precaution group) is 42.86%; in the data set on MHV-A59 virus (therapy group), 28.57%. Also, the average body weight was determined as 13.39 g with MHV-A59 virus (precaution group, day 1); 16.34 g with MHV-A59 virus (precaution group, day 8); 12.48 g with MHV-A59 virus (therapy group, day 1); 11.39 g in the data set on MHV-A59 virus (therapy group, day 8). For the same compound, the “remaining percentage of the parent cores after 60 min” value in data set [1] amounted to 83.9%; in data set [2], 55.0%. Also, in the data set with H1N1 (PR8 strain), the “survival rate of H1N1-infected mice” value is recorded as “significantly higher than that of the blank control group”.
